The target in data set [1] is T1, HER2 (Homo sapiens, UniProt P04626).
T1 construct: endogenous in cells; host or cells: Calu3 tumor cell line
Briefly: Inhibition of HER2 phosphorylation in Calu3 tumor cell line. Format: cell-based. The following applies: Calu3 cells; for percentage of inhibition of phosphorylation compared with the reference compound: 1 μM compound, versus Example 4, p. 88, WO 01/77107; for inhibition at 1 µM: Calu-3, read-out: Percent inhibition of HER2-phosphorylation. As to the method:
Inhibition of HER2 phosphorylation in Calu3 tumor cell line.
2×10^5 Calu3 cells per well were plated in a 12-well plate. After 4 days cells were starved for 16 h in DMEM(Dulbecco's Modified Eagle Medium)/0.5% FCS/1% Glutamine. During this time cells were incubated with 1 μM of a compound according to the present invention. Afterwards cells were lysed in lyses buffer containing 1% Triton, 10% Glycerol, 1 mM EGTA, 1.5 mM MgCl2, 150 mM NaCl, 50 mM Hepes pH 7.5, 1 mM PMSF, 10 μg/mL Aprotinin and […] Orthovanadate. Cell lysates were analyzed on a SDS PAGE and after transfer to a nitrocellulose membrane detected with a rabbit antibody specifically recognizing the pY 1248 in HER2 (Cell Signaling). After incubation with an anti rabbit antibody coupled to POD (Biorad) (Peroxidase available from Biorad, Munich, Germany) signals were detected by chemiluminescence (ECL,Amersham). Inhibition of HER2 phosphorylation is calculated as percentage of the DMSO treated control. This percentage is calculated according to the following formula: Inhibition in %=100-(Phosphorylated-HER2-Signal of Test Sample* 100/Phosphorylated-HER2-Signal DMSO-control).

Setting [2] is: compound concentration 1 μM, 16 h, pY 1248 in HER2, percentage of the DMSO treated control.

The term melting point denotes the temperature, or range, at which the solid turns liquid. What is called inhibition is the relative decrease from the control value, in per cent.

T1 sequence (P04626 23-1255): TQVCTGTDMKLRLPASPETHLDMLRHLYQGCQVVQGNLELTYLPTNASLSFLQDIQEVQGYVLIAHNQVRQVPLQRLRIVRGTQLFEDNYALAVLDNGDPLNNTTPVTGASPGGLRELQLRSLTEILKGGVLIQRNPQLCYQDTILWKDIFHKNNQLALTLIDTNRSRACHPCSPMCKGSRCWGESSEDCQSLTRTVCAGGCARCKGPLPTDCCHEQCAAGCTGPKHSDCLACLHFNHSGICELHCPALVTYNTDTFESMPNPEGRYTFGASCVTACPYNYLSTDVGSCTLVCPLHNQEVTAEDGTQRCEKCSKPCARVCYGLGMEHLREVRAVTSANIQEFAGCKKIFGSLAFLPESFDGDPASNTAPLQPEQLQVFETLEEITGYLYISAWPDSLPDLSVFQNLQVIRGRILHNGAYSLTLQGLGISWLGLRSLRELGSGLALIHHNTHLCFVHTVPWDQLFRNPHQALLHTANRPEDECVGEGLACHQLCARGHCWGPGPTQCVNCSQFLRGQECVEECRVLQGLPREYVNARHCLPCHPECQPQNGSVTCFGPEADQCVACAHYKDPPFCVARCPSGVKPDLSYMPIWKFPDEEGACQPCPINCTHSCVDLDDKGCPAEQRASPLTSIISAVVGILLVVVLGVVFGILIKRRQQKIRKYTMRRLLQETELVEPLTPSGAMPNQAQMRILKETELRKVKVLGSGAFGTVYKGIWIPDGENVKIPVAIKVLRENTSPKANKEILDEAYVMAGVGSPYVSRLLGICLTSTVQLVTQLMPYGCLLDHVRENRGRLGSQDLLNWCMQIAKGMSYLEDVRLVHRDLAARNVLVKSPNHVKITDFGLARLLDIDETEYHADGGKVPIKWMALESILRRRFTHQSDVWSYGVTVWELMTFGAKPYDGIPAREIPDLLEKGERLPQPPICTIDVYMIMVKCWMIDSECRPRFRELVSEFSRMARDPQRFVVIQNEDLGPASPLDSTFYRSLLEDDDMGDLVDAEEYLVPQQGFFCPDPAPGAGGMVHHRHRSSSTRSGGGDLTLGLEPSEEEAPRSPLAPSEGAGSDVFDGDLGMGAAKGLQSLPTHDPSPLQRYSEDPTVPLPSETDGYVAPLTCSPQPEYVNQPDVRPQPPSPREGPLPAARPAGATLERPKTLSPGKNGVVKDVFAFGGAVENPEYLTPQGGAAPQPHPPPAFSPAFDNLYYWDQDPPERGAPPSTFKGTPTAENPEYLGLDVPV

`[O-][S+](c1ccc(/C=C/c2nc(COc3ccc(CNCCn4ccnn4)cc3)co2)cc1)C(F)(F)F` (stereo not shown) [Example 3, (2-[1,2,3]Triazol-1-yl-ethyl)-(4-{2-[(E)-2-(4-trifluoromethanesulfinyl-phenyl)-vinyl]-oxazol-4-ylmethoxy}-benzyl)-amine]: the melting point lay within 111 to 113 °C.
Regarding `O=S(=O)(NCCn1ccnn1)c1ccc(OCc2coc(C=Cc3ccc([S+]([O-])C(F)(F)F)cc3)n2)cc1` (stereo not shown) [Example 13, N-(2-[1,2,3] Triazol-1-yl-ethyl)-4-{2-[2-(4-trifluoromethanesulfinyl-phenyl)-vinyl]-oxazol-4-ylmethoxy}-benzenesulfonamide], the melting point was in the range of 172 to 174 °C.
`Cc1cc(OCc2coc(C=Cc3ccc(S(=O)(=O)C(F)(F)F)cc3)n2)ccc1CCCCn1ccnn1` [Example 20, 1-[4-(2-Methyl-4-{2-[2-(4-trifluoromethanesulfonyl-phenyl)-vinyl]-oxazol-4-ylmethoxy}-phenyl)-butyl]-1H-[1,2,3]triazole] displayed a melting point of 140 to 142 °C.
Take `[O-][S+](c1ccc(C=Cc2nc(COc3ccc(CCCCn4ccnc4)cc3)co2)cc1)C(F)(F)F` (stereo not shown) [example 1, 4-[4-(4-Imidazol-1-yl-butyl)-phenoxymethyl]-2′-[2-(4-trifluoromethanesulfinyl-phenyl)-vinyl]-oxozole]: the “percentage of inhibition of phosphorylation compared with the reference compound” value in data set [1] was “higher percentage of inhibition of phosphorylation”. In data set [1] (setting [2]), the “Percent inhibition of HER2-phosphorylation” value is 92.5%.
In turn, `[O-][S+](c1ccc(/C=C/c2nc(COc3ccc(CCCCn4ccnn4)cc3)co2)cc1)C(F)(F)F` (stereo not shown) [example 4, 1-[4-(4-{2-[(E)-2-(-4-Trifluoromethanesulfinyl-phenyl)-vinyl]-oxazol-4-ylmethoxy}-phenyl)-butyl]-1H-[1,2,3]triazole] yielded a melting point of 122 to 123 °C. In data set [1], the “percentage of inhibition of phosphorylation compared with the reference compound” value is on record as “higher percentage of inhibition of phosphorylation”. Also, the inhibition at 1 µM in data set [1] (setting [2]) stood at 94.4%.
Compound `O=S(=O)(c1ccc(/C=C/c2nc(COc3ccc(CCCCn4ccnn4)cc3)co2)cc1)C(F)(F)F` [example 5, 1-[4-(4-{2-[(E)-2-(-4-Trifluoromethanesulfonyl-phenyl)-vinyl]-oxazol-4-ylmethoxy}-phenyl)-butyl]-1H-[1,2,3]triazole] gave a melting point of 133 to 135 °C. Moreover, the “percentage of inhibition of phosphorylation compared with the reference compound” value in data set [1] is listed as “higher percentage of inhibition of phosphorylation”. The inhibition at 1 µM in data set [1] (setting [2]) was found to be 82.9%.
With `[O-][S+](c1ccc(/C=C/c2nc(COc3ccc(CCCCc4nn[nH]n4)cc3)co2)cc1)C(F)(F)F` (stereo not shown) [example 7, 5-[4-(4-{2-[(E)-2-(-4-Trifluoromethanesulfinyl-phenyl)-vinyl]-oxazol-4-ylmethoxy}-phenyl)-butyl]-2H-tetrazole], the “percentage of inhibition of phosphorylation compared with the reference compound” value in data set [1] is reported as “higher percentage of inhibition of phosphorylation”. In addition, the inhibition at 1 µM in data set [1] (setting [2]) worked out at 52.9%.
In turn, `[O-][S+](c1ccc(/C=C/c2nc(COc3ccc(CCCCn4ccnn4)cc3)cs2)cc1)C(F)(F)F` (stereo not shown) [example 15, 1-[4-(4-{2-[(E)-2-(4-Trifluoromethanesulfinyl-phenyl)-vinyl]-thiazol-4-ylmethoxy}-phenyl)-butyl]-1H-[1,2,3]triazole] showed a melting point of 118 to 119 °C. For the same compound, the “percentage of inhibition of phosphorylation compared with the reference compound” value in data set [1] is reported as “higher percentage of inhibition of phosphorylation”. The inhibition at 1 µM in data set [1] (setting [2]) was 73.6%.

The values are drawn from patent US7405231B2, “Oxidized thioether derivatives” (Hoffmann-La Roche Inc., priority 2004, dated 2008).
